The values that follow come from BindingDB's records for doi:10.1021/jm00126a009 (Northeastern University, 1989).

The nature of assay [1]: Compound was evaluated for the ability to displace [3H]spiperone at Dopamine receptor D2 in porcine anterior pituitary gland as low affinity state.
Test in assay [2]: as above
This is another data set of the same source.

Assay [3] can be described thus: Compound was evaluated for the ability to displace [3H]spiperone at dopamine receptor in porcine anterior pituitary gland as high affinity state.
Assay [4] can be described thus: Compound was evaluated for the ability to displace [3H]spiperone at Dopamine receptor D2 in porcine anterior pituitary gland as high affinity state.

Broadly, the Kd is the equilibrium constant for the complex coming apart. On to `CN1CCc2cc(N)cc3c2[C@H]1Cc1ccc(O)c(O)c1-3`, for which the equilibrium dissociation constant (Kd) came out at 3300 nM in assay [1] and 20 nM in assay [2].
For the compound `CN1CCc2cc(F)cc3c2[C@H]1Cc1ccc(O)c(O)c1-3` [(R)-2-Fluoro-6-methyl-5,6,6a,7-tetrahydro-4H-dibenzo[de,g]quinoline-10,11-diol], the values for the Kd in assay [3] and in assay [4] were 0.43 nM and 94 nM, respectively.
As to `CN1CCc2cc(Br)cc3c2[C@H]1Cc1ccc(O)c(O)c1-3`, the Kd in assay [1] was 728 nM; in assay [4], 6.8 nM.
